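Dose response: 5 concentrations. Exposure: 48 h. Format: 96-well plates. Endpoint: linear interpolation; highest concentration if not reached. TGI marks complete inhibition of growth.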
Columns and labels:
Test in all cases: growth of human tumour cells (NCI), 48 h
COLO 205 colon = tested on: COLO 205 colon
SF-295 CNS = tested on: SF-295 CNS
HT29 colon = tested on: HT29 colon
NCI/ADR-RES ovarian = tested on: NCI/ADR-RES ovarian
DU-145 prostate = tested on: DU-145 prostate
HL-60(TB) leukemia = tested on: HL-60(TB) leukemia
MDA-N = tested on: MDA-N
SNB-75 CNS = tested on: SNB-75 CNS
MCF7 breast = tested on: MCF7 breast
MDA-MB-435 = tested on: MDA-MB-435
NCI-H226 lung = tested on: NCI-H226 lung
SNB-19 CNS = tested on: SNB-19 CNS
SN12C renal = tested on: SN12C renal
U251 CNS = tested on: U251 CNS
SK-MEL-28 melanoma = tested on: SK-MEL-28 melanoma
UO-31 renal = tested on: UO-31 renal
HCC-2998 colon = tested on: HCC-2998 colon
LOX IMVI melanoma = tested on: LOX IMVI melanoma
HOP-62 NSCLC = tested on: HOP-62 NSCLC
UACC-62 melanoma = tested on: UACC-62 melanoma
KM12 colon = tested on: KM12 colon
HCT-116 colon = tested on: HCT-116 colon
OVCAR-5 ovarian = tested on: OVCAR-5 ovarian
K-562 leukemia = tested on: K-562 leukemia
A498 renal = tested on: A498 renal
SK-MEL-5 melanoma = tested on: SK-MEL-5 melanoma
SK-MEL-2 melanoma = tested on: SK-MEL-2 melanoma
OVCAR-4 ovarian = tested on: OVCAR-4 ovarian
NCI-H522 lung = tested on: NCI-H522 lung
OVCAR-8 ovarian = tested on: OVCAR-8 ovarian
HS 578T breast = tested on: HS 578T breast
RPMI-8226 leukemia = tested on: RPMI-8226 leukemia
786-0 renal = tested on: 786-0 renal
CAKI-1 renal = tested on: CAKI-1 renal
UACC-257 melanoma = tested on: UACC-257 melanoma
IGROV1 ovarian = tested on: IGROV1 ovarian
NCI-H23 lung = tested on: NCI-H23 lung
PC-3 prostate = tested on: PC-3 prostate
RXF 393 renal = tested on: RXF 393 renal
SK-OV-3 ovarian = tested on: SK-OV-3 ovarian
SF-268 CNS = tested on: SF-268 CNS
MDA-MB-231 breast = tested on: MDA-MB-231 breast
EKVX NSCLC = tested on: EKVX NSCLC
BT-549 breast = tested on: BT-549 breast
NCI-H460 lung = tested on: NCI-H460 lung
A549 NSCLC = tested on: A549 NSCLC
CCRF-CEM leukemia = tested on: CCRF-CEM leukemia
MALME-3M melanoma = tested on: MALME-3M melanoma
TK-10 renal = tested on: TK-10 renal
SW-620 colon = tested on: SW-620 colon
HOP-92 NSCLC = tested on: HOP-92 NSCLC
M14 melanoma = tested on: M14 melanoma
HCT-15 colon = tested on: HCT-15 colon
ACHN renal = tested on: ACHN renal
SR leukemia = tested on: SR leukemia
MOLT-4 leukemia = tested on: MOLT-4 leukemia
T-47D breast = tested on: T-47D breast
SF-539 CNS = tested on: SF-539 CNS
OVCAR-3 ovarian = tested on: OVCAR-3 ovarian

`CN(C)CCn1nc(N)c2nc3cc(C(F)(F)F)ccc3nc21` was tested, and the TGI (COLO 205 colon) was > 100 µM, the TGI (SF-295 CNS) was > 100 µM and the TGI (HT29 colon) was > 100 µM. For the same compound, the TGI (NCI/ADR-RES ovarian) was > 100 µM, the TGI (DU-145 prostate) was > 100 µM and the TGI (HL-60(TB) leukemia) was > 100 µM. The TGI (MDA-N) was > 100 µM, the TGI (SNB-75 CNS) was 72 µM and the TGI (MCF7 breast) was > 100 µM. The TGI (MDA-MB-435) was > 100 µM, the TGI (NCI-H226 lung) was > 100 µM and the TGI (SNB-19 CNS) was > 100 µM. The TGI (SN12C renal) was > 100 µM, the TGI (U251 CNS) was > 100 µM and the TGI (SK-MEL-28 melanoma) was > 100 µM. The TGI (UO-31 renal) was > 100 µM, the TGI (HCC-2998 colon) was > 100 µM and the TGI (LOX IMVI melanoma) was > 100 µM. For the same compound, the TGI (HOP-62 NSCLC) was > 100 µM, the TGI (UACC-62 melanoma) was > 100 µM and the TGI (KM12 colon) was > 100 µM. The TGI (HCT-116 colon) was > 100 µM, the TGI (OVCAR-5 ovarian) was > 100 µM and the TGI (K-562 leukemia) was > 100 µM. For the same compound, the TGI (A498 renal) was > 100 µM, the TGI (SK-MEL-5 melanoma) was > 100 µM and the TGI (SK-MEL-2 melanoma) was > 100 µM. For the same compound, the TGI (OVCAR-4 ovarian) was > 100 µM, the TGI (NCI-H522 lung) was > 100 µM and the TGI (OVCAR-8 ovarian) was > 100 µM. For the same compound, the TGI (HS 578T breast) was > 100 µM, the TGI (RPMI-8226 leukemia) was > 100 µM and the TGI (786-0 renal) was > 100 µM. For the same compound, the TGI (CAKI-1 renal) was > 100 µM, the TGI (UACC-257 melanoma) was > 100 µM and the TGI (IGROV1 ovarian) was > 100 µM. For the same compound, the TGI (NCI-H23 lung) was > 100 µM, the TGI (PC-3 prostate) was > 100 µM and the TGI (RXF 393 renal) was > 100 µM. The TGI (SK-OV-3 ovarian) was > 100 µM, the TGI (SF-268 CNS) was > 100 µM and the TGI (MDA-MB-231 breast) was > 100 µM. For the same compound, the TGI (EKVX NSCLC) was > 100 µM, the TGI (BT-549 breast) was > 100 µM and the TGI (NCI-H460 lung) was > 100 µM. The TGI (A549 NSCLC) was > 100 µM, the TGI (CCRF-CEM leukemia) was > 100 µM and the TGI (MALME-3M melanoma) was > 100 µM. For the same compound, the TGI (TK-10 renal) was > 100 µM, the TGI (SW-620 colon) was > 100 µM and the TGI (HOP-92 NSCLC) was > 100 µM. The TGI (M14 melanoma) was > 100 µM, the TGI (HCT-15 colon) was > 100 µM and the TGI (ACHN renal) was > 100 µM. The TGI (SR leukemia) was > 100 µM and the TGI (MOLT-4 leukemia) was > 100 µM.

`C[N+](C)(N)c1nc(N)c(C#N)c(C#N)c1C#N` was tested, and the TGI (COLO 205 colon) was > 10 µM, the TGI (SF-295 CNS) was > 10 µM and the TGI (HT29 colon) was > 10 µM. For the same compound, the TGI (T-47D breast) was > 10 µM, the TGI (NCI/ADR-RES ovarian) was > 10 µM and the TGI (DU-145 prostate) was > 10 µM. For the same compound, the TGI (HL-60(TB) leukemia) was > 10 µM, the TGI (MDA-N) was > 10 µM and the TGI (SNB-75 CNS) was > 10 µM. For the same compound, the TGI (MCF7 breast) was > 10 µM, the TGI (MDA-MB-435) was > 10 µM and the TGI (NCI-H226 lung) was > 10 µM. For the same compound, the TGI (SNB-19 CNS) was > 10 µM, the TGI (SN12C renal) was > 10 µM and the TGI (U251 CNS) was > 10 µM. The TGI (SK-MEL-28 melanoma) was > 10 µM, the TGI (UO-31 renal) was > 10 µM and the TGI (HCC-2998 colon) was > 10 µM. The TGI (LOX IMVI melanoma) was > 10 µM, the TGI (HOP-62 NSCLC) was > 10 µM and the TGI (UACC-62 melanoma) was > 10 µM. For the same compound, the TGI (HCT-116 colon) was > 10 µM, the TGI (OVCAR-5 ovarian) was > 10 µM and the TGI (K-562 leukemia) was > 10 µM. The TGI (A498 renal) was > 10 µM, the TGI (SK-MEL-5 melanoma) was > 10 µM and the TGI (SK-MEL-2 melanoma) was > 10 µM. The TGI (OVCAR-4 ovarian) was > 10 µM, the TGI (NCI-H522 lung) was > 10 µM and the TGI (OVCAR-8 ovarian) was > 10 µM. The TGI (HS 578T breast) was > 10 µM, the TGI (RPMI-8226 leukemia) was > 10 µM and the TGI (CAKI-1 renal) was > 10 µM. The TGI (SF-539 CNS) was > 10 µM, the TGI (IGROV1 ovarian) was > 10 µM and the TGI (NCI-H23 lung) was > 10 µM. For the same compound, the TGI (PC-3 prostate) was > 10 µM, the TGI (RXF 393 renal) was > 10 µM and the TGI (SK-OV-3 ovarian) was > 10 µM. For the same compound, the TGI (SF-268 CNS) was > 10 µM, the TGI (MDA-MB-231 breast) was > 10 µM and the TGI (EKVX NSCLC) was > 10 µM. For the same compound, the TGI (NCI-H460 lung) was > 10 µM, the TGI (A549 NSCLC) was > 10 µM and the TGI (CCRF-CEM leukemia) was > 10 µM. The TGI (MALME-3M melanoma) was > 10 µM, the TGI (TK-10 renal) was > 10 µM and the TGI (SW-620 colon) was > 10 µM. The TGI (M14 melanoma) was > 10 µM, the TGI (HCT-15 colon) was > 10 µM and the TGI (ACHN renal) was > 10 µM. The TGI (SR leukemia) was > 10 µM, the TGI (OVCAR-3 ovarian) was > 10 µM and the TGI (MOLT-4 leukemia) was > 10 µM.

Reference: PubChem BioAssay (NCI)
